One may read the IC50 as the midpoint of a concentration-inhibition curve.

From patent publication US6306890A, “Esters derived from indolealkanols and novel amides derived from indolealkylamides that are selective COX-2 inhibitors” (Vanderbilt University, priority 1999, dated 2001) come the findings set out here.

In one assay the target is T1, ovine COX-1 (Ovis aries, UniProt P05979).
T1 sequence (P05979 25-600): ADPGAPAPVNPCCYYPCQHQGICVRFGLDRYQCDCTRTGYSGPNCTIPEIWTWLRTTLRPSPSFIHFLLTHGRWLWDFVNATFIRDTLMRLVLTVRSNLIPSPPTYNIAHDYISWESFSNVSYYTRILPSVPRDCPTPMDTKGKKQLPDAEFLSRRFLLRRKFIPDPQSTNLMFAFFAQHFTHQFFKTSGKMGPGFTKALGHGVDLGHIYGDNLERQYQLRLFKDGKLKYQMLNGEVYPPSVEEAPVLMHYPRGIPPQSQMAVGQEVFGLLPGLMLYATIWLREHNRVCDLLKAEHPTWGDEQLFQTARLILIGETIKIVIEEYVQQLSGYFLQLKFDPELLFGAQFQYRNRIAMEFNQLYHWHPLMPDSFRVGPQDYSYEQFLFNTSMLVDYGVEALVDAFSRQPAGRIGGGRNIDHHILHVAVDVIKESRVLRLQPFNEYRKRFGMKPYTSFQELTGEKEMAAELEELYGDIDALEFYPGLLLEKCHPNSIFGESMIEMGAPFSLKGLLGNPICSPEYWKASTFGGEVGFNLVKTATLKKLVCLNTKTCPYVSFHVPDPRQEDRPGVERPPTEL
In words: Inhibition of ovine COX-1, TLC assay ([1-14C]-arachidonic acid), time-dependent.

A further assay has as its target T2, human COX-2 (Homo sapiens, UniProt P35354).
T2 sequence (P35354 18-604): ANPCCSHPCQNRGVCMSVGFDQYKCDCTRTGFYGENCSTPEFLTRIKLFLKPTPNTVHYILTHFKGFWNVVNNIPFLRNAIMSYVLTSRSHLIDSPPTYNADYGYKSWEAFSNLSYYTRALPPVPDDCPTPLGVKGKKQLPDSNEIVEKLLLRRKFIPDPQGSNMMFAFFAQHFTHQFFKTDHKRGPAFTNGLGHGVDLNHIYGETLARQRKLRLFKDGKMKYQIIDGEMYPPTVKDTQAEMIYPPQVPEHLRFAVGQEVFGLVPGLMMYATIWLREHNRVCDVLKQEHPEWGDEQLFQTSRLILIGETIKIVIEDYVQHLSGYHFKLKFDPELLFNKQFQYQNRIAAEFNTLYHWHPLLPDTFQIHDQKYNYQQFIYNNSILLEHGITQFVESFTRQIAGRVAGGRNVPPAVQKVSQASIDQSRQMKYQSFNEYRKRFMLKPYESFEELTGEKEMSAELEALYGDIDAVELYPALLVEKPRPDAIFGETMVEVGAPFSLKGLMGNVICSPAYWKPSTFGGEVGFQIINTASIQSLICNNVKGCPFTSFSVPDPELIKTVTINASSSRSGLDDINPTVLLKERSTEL
Nature of the assay: Inhibition of purified human COX-2, TLC assay ([1-14C]-arachidonic acid), time-dependent. The conditions noted are these: for Selectivity: COX-2 selectivity ratio, IC50 COX-1 / IC50 COX-2.

The target of assay [1] is T3, COX-2 in activated RAW264.7 macrophages (Mus musculus, UniProt Q05769).
T3 construct: PGD2 from [1-14C]-arachidonic acid by TLC
T3 sequence (Q05769 18-604): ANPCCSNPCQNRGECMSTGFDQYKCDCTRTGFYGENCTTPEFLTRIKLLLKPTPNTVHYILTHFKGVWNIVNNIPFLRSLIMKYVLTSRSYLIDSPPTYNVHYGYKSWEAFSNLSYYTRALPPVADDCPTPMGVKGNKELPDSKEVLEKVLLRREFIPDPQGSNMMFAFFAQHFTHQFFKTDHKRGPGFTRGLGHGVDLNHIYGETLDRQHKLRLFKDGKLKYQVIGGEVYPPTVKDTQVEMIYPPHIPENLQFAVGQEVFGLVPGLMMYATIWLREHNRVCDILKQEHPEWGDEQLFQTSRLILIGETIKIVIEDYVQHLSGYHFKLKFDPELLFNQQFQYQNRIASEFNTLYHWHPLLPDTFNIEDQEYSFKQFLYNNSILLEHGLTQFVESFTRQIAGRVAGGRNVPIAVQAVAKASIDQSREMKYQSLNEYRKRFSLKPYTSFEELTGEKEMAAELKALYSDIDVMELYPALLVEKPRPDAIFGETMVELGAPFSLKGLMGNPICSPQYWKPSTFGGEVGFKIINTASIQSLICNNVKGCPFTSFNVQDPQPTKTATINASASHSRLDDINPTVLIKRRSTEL
In words: Inhibition of COX-2 activity (PGD2 production) in intact activated RAW264.7 cells. In kind it is cell-based, murine. Particulars: FIG. 1; inhibitor 0-1 μM, 30 minutes at 37° C.; LPS + IFN-γ activated. As to the method: The ability of these compounds to inhibit COX-2 in intact cells was assayed in activated RAW264.7 macrophages in which COX-2 activity was induced by pathologic stimuli. The macrophages were treated with lipopolysaccharide ([…]) and γ-interferon (10 U/mL) for 7.5 hours to induce COX-2 and then treated with several concentrations of each of inventive Compounds 5c, 5e, and 9e.
More specifically, low passage number murine RAW264.7 cells were grown in DMEM containing 10% heat-inactivated FBS. Cells (6.2×10^6 cells/T25 flask) were activated with 500 ng/mL LPS and 10 units/mL IFN-γ in serum-free DMEM for 7 hours. Vehicle (DMSO) or inhibitor (inventive Compound 5c, 5e, or 9e) in DMSO (0-1 μM) was added for 30 minutes at 37° C. […] Aliquots (200 μL) were removed into termination solution and total products were quantitatively determined by the TLC assay as described earlier.

Assay [2] concerns carrageenan-induced rat foot paw edema. In words: Carrageenan-induced rat foot paw edema assay. In kind it is in vivo, rat (male Sprague Dawley). Particulars: FIG. 2 / FIG. 3; gavage 1 hour after carrageenan, paw volume at 3 hour post-injection. Here is the method:
All procedures were performed according to approved animal protocols (#M/98/251, Vanderbilt University Animal Care Committee). Male Sprague Dawley rats (Harlan Sprague Dawley, Indianapolis, Ind.) (150-175 grams) were fasted for 18 hours and then injected with λ-carrageenan (0.1 ml of a 1% suspension in 0.85% saline, Fluka BioChemika, Milwaukee, Wis.) into the right hind footpad. After 1 hour, 90 μl inhibitor (either Compound 5c or Compound 9e) in DMSO was added to 6 ml corn oil, and the rats were gavaged with 0.5 ml corn oil containing DMSO or containing DMSO and inhibitor.
The ipsilateral footpad volume was measured with a water displacement plethysmometer (Ugo Basile, Italy, distributed by Stoelting Co., Wood Dale, Ill.) at 3 hour post-injection and compared to the initial pre-injection paw volume. Inhibitor concentrations were varied as shown in FIG. 2 (Compound 5c) and FIG. 3 (Compound 9e), with n=6 animals per group in duplicate experiments.

Where two headings read alike, the source gives them in different places.

Turning to `COc1ccc2c(c1)c(CCOC(=O)c1ccc(C)cc1)c(C)n2C(=O)c1ccc(Cl)cc1` [Compound 5b, N-(pchlorobenzoyl)-5-methoxy-2-methylindole-ethyl-(p-methyl)benzoate], the IC50 at ovine COX-1 was greater than 66000 nM; at human COX-2, 50 nM. Besides, the Selectivity at human COX-2 (Table 1 esters) was greater than 1320.
`COc1ccc2c(c1)c(CCOC(=O)c1ccc(Cl)cc1)c(C)n2Cc1ccc(Br)cc1` [Compound 5h, N-(p-bromobenzyl)-5-methoxy-2-methylindole-3-ethyl-(p-chloro)benzoate] had an IC50 at ovine COX-1 greater than 66000 nM.
In the case of `COc1ccc2c(c1)c(CCOC(=O)c1ccc(Br)cc1)c(C)n2C(=O)c1ccc(Cl)cc1` [Compound 5f, N-(p-Chlorobenzoyl)-5-methoxy-2-methylindole-3-ethyl-(p-bromo)benzoate], the IC50 was greater than 66000 nM at ovine COX-1 and 40 nM on human COX-2. In addition, the Selectivity at human COX-2 (Table 1 esters) is on record as greater than 1466.
`CCCCC(=O)OCCc1c(C)n(C(=O)c2ccc(Cl)cc2)c2ccc(OC)cc12` [Compound 5a, N-(p-chlorobenzoyl)-5-methoxy-2-methylindole-3-ethyl-valerate]: the IC50 on ovine COX-1 (read-out: IC50 COX-1, Table 1 esters, ovine COX-1 (44 nM) preincubated 25° C. 15 min, [1-14C]-arachidonic acid 50 μM, 37° C., 30 seconds, duplicate) was greater than 66000 nM; at human COX-2 (read-out: IC50 COX-2, Table 1 esters, time-dependent inhibition, [1-14C]-arachidonic acid 50 μM, 37° C., 30 seconds, duplicate) it was 650 nM. For the same compound, the Selectivity at human COX-2 (Table 1 esters) was greater than 1015.
As for `COc1ccc2c(c1)c(CCOC(=O)c1ccccc1OC)c(C)n2C(=O)c1ccc(Cl)cc1` [Compound 5d, N-(pchlorobenzoyl)-5-methoxy-2-methylindole-3thyl-(o-methoxy)benzoate], the IC50 on ovine COX-1 was greater than 66000 nM; at human COX-2, 50 nM. Further, the Selectivity at human COX-2 (Table 1 esters) is greater than 1320.
On to `COc1ccc2c(c1)c(CCNC(=O)c1ccc(Cl)cc1)c(C)n2Cc1ccc(Br)cc1` [Compound 9h, N-(p-bromobenzyl)-5-methoxy-2-methylindole-3-ethyl(p-chloro) benzamide], for which the IC50 at ovine COX-1 is greater than 66000 nM.
For `COc1ccc2c(c1)c(CCNC(=O)c1ccc(Cl)cc1)c(C)n2C(=O)c1ccc(Cl)cc1` [Compound 9e, N-(p-chlorobenzoyl)-5-methoxy-2-methylindole-3-ethyl-(p-chloro)benzamide], in assay [1], the “inhibition of production of PGD2” value is “inhibition of production of PGD2”. For the same compound, the “inhibition of edema in the rat footpad” value in assay [2] is given as “inhibition of edema in the rat footpad”. Also, the IC50 against ovine COX-1 is 4000 nM; at human COX-2, 50 nM. The Selectivity on human COX-2 (inventive amides table) came out at 80.
For `COc1ccc2c(c1)c(CCOC(=O)c1ccc(I)cc1)c(C)n2C(=O)c1ccc(Cl)cc1` [Compound 5g, N-(phlorobenzoyl)-5-methoxy-2-methylindole-3-ethyl(-p-iodo)benzoate], the half-inhibitory concentration (IC50) against ovine COX-1 was greater than 66000 nM; at human COX-2 it was 50 nM. Besides, the Selectivity on human COX-2 (Table 1 esters) is greater than 1320.
For `COc1ccc(C(=O)OCCc2c(C)n(C(=O)c3ccc(Cl)cc3)c3ccc(OC)cc23)cc1` [Compound 5c, N-(p-chlorobenzoyl)-5-methoxy-2-methylindole-3ethylo-(p-methoxy)benzoate], the “inhibition of production of PGD2” value in assay [1] is reported as “inhibition of production of PGD2”. Moreover, the “inhibition of edema in the rat footpad” value in assay [2] is listed as “inhibition of edema in the rat footpad”. For the same compound, the IC50 is greater than 66000 nM against ovine COX-1 and 40 nM on human COX-2. Further, the Selectivity at human COX-2 (Table 1 esters) was greater than 1466.
Take “N-(p-chlorobenzoyl)-5-methoxy-2-methylindole-3-ethyl-(2-phenyl)ethylamide [Compound 9i]”: the IC50 at ovine COX-1 (read-out: IC50 COX-1, inventive amides table) was roughly 17000 nM; on human COX-2 (read-out: IC50 COX-2, inventive amides table), roughly 40 nM. The Selectivity at human COX-2 (inventive amides table) is reported as ~ 425.
As for `COc1ccc2c(c1)c(CCOC(=O)c1ccc(Cl)cc1)c(C)n2C(=O)c1ccc(Cl)cc1` [Compound 5e, N -(p-chlorobenzoyl)-5-methoxy-2-methylindole-3-ethyl-(p-chloro)benzoate], the “inhibition of production of PGD2” value in assay [1] is on record as “inhibition of production of PGD2”. The IC50 is greater than 66000 nM on ovine COX-1 and 50 nM against human COX-2. In addition, the Selectivity on human COX-2 (Table 1 esters) was greater than 1320.
